The NIST ThermoML archive (doi:10.1016/j.fluid.2017.12.026)
Where “and” joins values, the source holds several entries; their conditions need not be identical. Equal entries are not always repeated.

Details: Coaxial cylinder method

CCCCC [pentane]
Details | thermal conductivity
465.4 K, 9497 kPa, Liquid | 0.07785 W/m/K
465.4 K, 9610 kPa, Liquid | 0.07785 W/m/K
465.4 K, 9891 kPa, Liquid | 0.07814 W/m/K
466.27 K, 100 kPa, Gas | 0.03453 W/m/K
466.28 K, 100 kPa, Gas | 0.03449 W/m/K
466.29 K, 100 kPa, Gas | 0.03442 W/m/K
466.3 K, 100 kPa, Gas | 0.03439 W/m/K
466.7 K, 100 kPa, Gas | 0.03462 W/m/K
467.36 K, 11000 kPa, Liquid | 0.08067 W/m/K
467.36 K, 11500 kPa, Liquid | 0.08129 W/m/K
467.36 K, 12000 kPa, Liquid | 0.08175 W/m/K
467.36 K, 13000 kPa, Liquid | 0.08285 W/m/K
467.36 K, 13800 kPa, Liquid | 0.08362 W/m/K
467.36 K, 15200 kPa, Liquid | 0.08486 W/m/K
467.36 K, 16000 kPa, Liquid | 0.08553 W/m/K
467.36 K, 16500 kPa, Liquid | 0.08593 W/m/K
467.36 K, 17000 kPa, Liquid | 0.08638 W/m/K
467.36 K, 17500 kPa, Liquid | 0.08673 W/m/K
467.36 K, 18000 kPa, Liquid | 0.08718 W/m/K
467.36 K, 18500 kPa, Liquid | 0.0876 W/m/K
467.36 K, 19000 kPa, Liquid | 0.08803 W/m/K
467.36 K, 19500 kPa, Liquid | 0.08843 W/m/K
467.36 K, 20000 kPa, Liquid | 0.08879 W/m/K
467.36 K, 20500 kPa, Liquid | 0.08919 W/m/K
467.36 K, 21000 kPa, Liquid | 0.08956 W/m/K
467.36 K, 21500 kPa, Liquid | 0.08989 W/m/K
467.36 K, 22000 kPa, Liquid | 0.09031 W/m/K
467.36 K, 22500 kPa, Liquid | 0.09068 W/m/K
467.36 K, 23000 kPa, Liquid | 0.0911 W/m/K
467.36 K, 23500 kPa, Liquid | 0.09141 W/m/K
467.36 K, 24000 kPa, Liquid | 0.0918 W/m/K
467.36 K, 24500 kPa, Liquid | 0.09219 W/m/K
467.36 K, 25000 kPa, Liquid | 0.09258 W/m/K
467.36 K, 25500 kPa, Liquid | 0.09286 W/m/K
467.36 K, 26000 kPa, Liquid | 0.09318 W/m/K
467.36 K, 26500 kPa, Liquid | 0.09358 W/m/K
467.36 K, 27000 kPa, Liquid | 0.0939 W/m/K
467.36 K, 27500 kPa, Liquid | 0.09419 W/m/K
467.36 K, 28000 kPa, Liquid | 0.09456 W/m/K
467.36 K, 28500 kPa, Liquid | 0.09489 W/m/K
467.36 K, 29000 kPa, Liquid | 0.09522 W/m/K
467.36 K, 29500 kPa, Liquid | 0.09552 W/m/K
467.36 K, 30000 kPa, Liquid | 0.09583 W/m/K
467.36 K, 30500 kPa, Liquid | 0.09613 W/m/K
467.36 K, 31000 kPa, Liquid | 0.09634 W/m/K
467.36 K, 31280 kPa, Liquid | 0.09643 W/m/K
467.36 K, 31300 kPa, Liquid | 0.09647 W/m/K
467.36 K, 31340 kPa, Liquid | 0.09656 W/m/K
467.76 K, 100 kPa, Gas | 0.03471 W/m/K
468.02 K, 100 kPa, Gas | 0.03483 W/m/K
468.08 K, 100 kPa, Gas | 0.03457 W/m/K
468.57 K, 100 kPa, Gas | 0.03481 W/m/K
469.93 K, 100 kPa, Gas | 0.03492 W/m/K
470.04 K, 2036 kPa, Gas | 0.03754 W/m/K
470.07 K, 100 kPa, Gas | 0.03498 W/m/K
470.2 K, 100 kPa, Gas | 0.03485 W/m/K
471.68 K, 100 kPa, Gas | 0.03523 W/m/K
472.17 K, 1697 kPa, Gas | 0.03753 W/m/K
472.21 K, 100 kPa, Gas | 0.03519 W/m/K
472.84 K, 100 kPa, Gas | 0.03528 W/m/K
472.97 K, 100 kPa, Gas | 0.03526 W/m/K
473.01 K, 100 kPa, Gas | 0.03533 W/m/K
473.86 K, 100 kPa, Gas | 0.03563 W/m/K
474.81 K, 100 kPa, Gas | 0.03571 W/m/K
475.4 K, 100 kPa, Gas | 0.03567 W/m/K
475.7 K, 10375 kPa, Gas | 0.07726 W/m/K
475.7 K, 17575 kPa, Gas | 0.0849 W/m/K
475.7 K, 19975 kPa, Gas | 0.08712 W/m/K
475.7 K, 24775 kPa, Gas | 0.0897 W/m/K
475.7 K, 29975 kPa, Gas | 0.09365 W/m/K
475.7 K, 40275 kPa, Gas | 0.09992 W/m/K
475.7 K, 48475 kPa, Gas | 0.1033 W/m/K
476.21 K, 100 kPa, Gas | 0.03593 W/m/K
478.08 K, 100 kPa, Gas | 0.03587 W/m/K
478.2 K, 100 kPa, Gas | 0.03595 W/m/K
478.5 K, 2001 kPa, Gas | 0.03835 W/m/K
478.5 K, 10175 kPa, Gas | 0.07793 W/m/K
478.5 K, 19775 kPa, Gas | 0.08695 W/m/K
478.5 K, 20375 kPa, Gas | 0.08696 W/m/K
478.5 K, 30175 kPa, Gas | 0.09387 W/m/K
478.5 K, 32975 kPa, Gas | 0.09616 W/m/K
478.5 K, 40175 kPa, Gas | 0.1002 W/m/K
478.5 K, 46675 kPa, Gas | 0.1028 W/m/K
479.9 K, 100 kPa, Gas | 0.03642 W/m/K
482.02 K, 100 kPa, Gas | 0.03645 W/m/K
482.02 K, 2180 kPa, Gas | 0.03995 W/m/K
484.5 K, 7555 kPa, Gas | 0.07149 W/m/K
484.5 K, 10055 kPa, Gas | 0.0768 W/m/K
484.5 K, 19975 kPa, Gas | 0.08666 W/m/K
484.5 K, 25175 kPa, Gas | 0.09003 W/m/K
484.5 K, 27775 kPa, Gas | 0.09214 W/m/K
485.84 K, 1820 kPa, Gas | 0.03954 W/m/K
485.84 K, 1830 kPa, Gas | 0.03953 W/m/K
485.84 K, 1886 kPa, Gas | 0.03962 W/m/K
485.84 K, 2000 kPa, Gas | 0.04018 W/m/K
485.84 K, 2180 kPa, Gas | 0.04056 W/m/K
485.84 K, 2260 kPa, Gas | 0.04079 W/m/K
485.84 K, 2280 kPa, Gas | 0.04036 W/m/K
485.84 K, 2300 kPa, Gas | 0.04075 W/m/K
485.84 K, 2560 kPa, Gas | 0.04155 W/m/K
487.28 K, 1820 kPa, Gas | 0.03982 W/m/K
487.3 K, 100 kPa, Gas | 0.03739 W/m/K
497.3 K, 988 kPa, Gas | 0.03935 W/m/K
497.3 K, 2518 kPa, Gas | 0.04191 W/m/K
497.3 K, 9975 kPa, Gas | 0.07419 W/m/K
497.3 K, 19975 kPa, Gas | 0.08618 W/m/K
497.3 K, 30375 kPa, Gas | 0.09354 W/m/K
497.3 K, 40275 kPa, Gas | 0.09941 W/m/K
497.3 K, 49575 kPa, Gas | 0.1037 W/m/K
497.65 K, 100 kPa, Gas | 0.03875 W/m/K
500.96 K, 100 kPa, Gas | 0.03915 W/m/K
523 K, 988 kPa, Gas | 0.0425 W/m/K
523 K, 2508 kPa, Gas | 0.04516 W/m/K
523 K, 17975 kPa, Gas | 0.0821 W/m/K
523 K, 20175 kPa, Gas | 0.08444 W/m/K
523 K, 25475 kPa, Gas | 0.0885 W/m/K
523 K, 30475 kPa, Gas | 0.09129 W/m/K
523 K, 40175 kPa, Gas | 0.09665 W/m/K
523 K, 43475 kPa, Gas | 0.09824 W/m/K
523 K, 49975 kPa, Gas | 0.1014 W/m/K
526.4 K, 2200 kPa, Gas | 0.04473 W/m/K
526.4 K, 2300 kPa, Gas | 0.0457 W/m/K
526.4 K, 2400 kPa, Gas | 0.0457 W/m/K
526.4 K, 2500 kPa, Gas | 0.0457 W/m/K
526.4 K, 2600 kPa, Gas | 0.04565 W/m/K
526.4 K, 2700 kPa, Gas | 0.0456 W/m/K
526.4 K, 2800 kPa, Gas | 0.04599 W/m/K
526.4 K, 2900 kPa, Gas | 0.0465 W/m/K
526.4 K, 3000 kPa, Gas | 0.04712 W/m/K
526.4 K, 3300 kPa, Gas | 0.04771 W/m/K
526.4 K, 3600 kPa, Gas | 0.04853 W/m/K
526.4 K, 3700 kPa, Gas | 0.04799 W/m/K
526.4 K, 3800 kPa, Gas | 0.04888 W/m/K
526.54 K, 2200 kPa, Gas | 0.04492 W/m/K
526.57 K, 100 kPa, Gas | 0.04253 W/m/K
576.1 K, 100 kPa, Gas | 0.04957 W/m/K
576.1 K, 988 kPa, Gas | 0.05094 W/m/K
576.1 K, 2417 kPa, Gas | 0.05148 W/m/K
576.1 K, 2508 kPa, Gas | 0.05179 W/m/K
576.1 K, 4048 kPa, Gas | 0.05495 W/m/K
576.1 K, 20475 kPa, Gas | 0.08464 W/m/K
576.1 K, 22475 kPa, Gas | 0.08627 W/m/K
576.1 K, 30275 kPa, Gas | 0.09057 W/m/K
576.1 K, 30575 kPa, Gas | 0.09 W/m/K
576.1 K, 40175 kPa, Gas | 0.09709 W/m/K
576.1 K, 40975 kPa, Gas | 0.09601 W/m/K
576.1 K, 51275 kPa, Gas | 0.1023 W/m/K
618.2 K, 7584 kPa, Gas | 0.06457 W/m/K
618.2 K, 9985 kPa, Gas | 0.06826 W/m/K
618.2 K, 11475 kPa, Gas | 0.07159 W/m/K
618.2 K, 12945 kPa, Gas | 0.07331 W/m/K
618.2 K, 12985 kPa, Gas | 0.07397 W/m/K
618.2 K, 14975 kPa, Gas | 0.07629 W/m/K
618.2 K, 18875 kPa, Gas | 0.08227 W/m/K and 0.08277 W/m/K
621.2 K, 100 kPa, Gas | 0.05581 W/m/K
621.2 K, 10375 kPa, Gas | 0.06836 W/m/K
621.2 K, 15375 kPa, Gas | 0.07737 W/m/K
621.2 K, 20275 kPa, Gas | 0.08383 W/m/K
621.2 K, 22975 kPa, Gas | 0.08581 W/m/K
621.2 K, 30175 kPa, Gas | 0.09232 W/m/K
621.2 K, 39275 kPa, Gas | 0.09614 W/m/K
621.2 K, 40375 kPa, Gas | 0.09714 W/m/K
621.2 K, 49975 kPa, Gas | 0.1015 W/m/K
621.2 K, 53675 kPa, Gas | 0.1031 W/m/K
621.2 K, 53975 kPa, Gas | 0.103 W/m/K
